Values quoted from earlier work as cited in patent US20100285081A1, “Bactericidal Nanofibers, and Methods of Use Thereof” (MASSACHUSETTS INSTITUTE OF TECHNOLOGY, priority 2007, published 2010).

Experiments:
E. coli = conditions: from Buxbaum et al. 2006
S. epidermidis = conditions: from Buxbaum et al. 2006

[H]/N=C(\N/C(=N/[H])NCCCCCCNC(=N)NC(=N)Nc1ccc(Cl)cc1)Nc1ccc(Cl)cc1 [CHX, chlorhexidine]
minimum inhibitory concentration of CHX (E. coli): 2 to 8 µg/mL | minimum inhibitory concentration of CHX (S. epidermidis): 0.5 to 2 µg/mL
